The numbers were not newly measured in patent US20230399688A1, “COMPOSITIONS AND M[…] FOR COUPLED CELL-FREE TRANSCRIPTION-T[…] PROTEIN SYNTHESIS AND METHODS FOR USING THEM” (GENOMATICA, INC., priority 2015, published 2023), which cites them from elsewhere.

SMILES strings stand for the structures.

In the series the test system is human cancer cell lines. Particulars: in comparison to the parent drug, MTM.

As for `CO[C@@H]([C@@H]1Cc2cc3cc(O[C@H]4C[C@@H](O[C@H]5C[C@@H](O)[C@H](O)[C@@H](C)O5)[C@H](O)[C@@H](C)O4)c(C)c(O)c3c(O)c2C(=O)[C@H]1O[C@H]1C[C@@H](O[C@H]2C[C@@H](O[C@H]3C[C@](C)(O)[C@H](O)[C@@H](C)O3)[C@@H](O)[C@@H](C)O2)[C@H](O)[C@@H](C)O1)[C@@H](O)C(C)=O` [MTM-SK, mithramycin SK], the therapeutic index entry is recorded as “improved therapeutic index”.
